By IC50 is commonly meant the concentration that gives 50% inhibition.

Read-outs that look alike come from different tables or passages of the source.

This passage reports IC50 and ORR results from US20260284005A1, “INHIBITING MITOGEN-ACTIVATED PROTEIN (MAP)/ERK KINASE (MEK)1 AND MEK2 AND RELATED METHODS OF TREATMENT” (priority 2023, published 2026).

Assay [1] deals with HT-29 cells. Put plainly: 3D-TGA. Format: cell-based, human. As for the experimental part:
(§1) Cells were seeded in 3D cultures in a black-walled, clear-bottom, non-tissue culture treated, 384-well plate (3000 cells per well) using a 1:1 mixture of BME and a custom media and grown in a humidified incubator with 5% CO2 and 5% O2, which approximates capillary levels for each gas, at 37° C. […] Cells were assessed for cell proliferation using EdU cell proliferation staining. […] Cells were permeabilized with 30 μL of filtered 0.5% Triton X-100 in PBS for 20 minutes at room temperature. Samples were washed twice gently with PBS. Cells were stained utilizing click-iT chemistry by adding 20 μL of staining cocktail containing 2 mM copper sulfate, 8 μM sulfo-Cy5-azide, and 20 mg/ml ascorbic acid in PBS and incubated 30-60 minutes at room temperature in dark. […] Plates were imaged with the Molecular Devices Pico ImageXpress. Images were segmented and percentage of cells with EdU incorporation was quantified to calculate antiproliferative effects of the drugs.
(§2) Five (5)-ethynyl-2′-deoxyuridine (EdU) data was represented as percentage EdU positive cells quantified by high content imaging from the Molecular Devices ImageXpress® Pico.

Assay [2] has as its system CL-40 cells. The assay can be described thus: 3D-TGA. The format is cell-based, human. The following applies: read-out: IC50 in 3D-TGA, agent alone. The method, then:
as §1, §2

The subject of assay [3] is SNU-1197 cells. The assay can be described thus: 3D-TGA. Format: cell-based, human. Particulars: read-out: IC50 in 3D-TGA, agent alone. As for the experimental part:
as §1, §2

The test system of assay [4] is SW626 cells. Put plainly: 3D-TGA. The format is cell-based, human. The method, then:
as §1, §2

For assay [5], the system named is LS1034 cells. The assay can be described thus: 3D-TGA. The format is cell-based, human. The following applies: LS1034, COL, KRAS A146T, read-out: IC50 in 3D-TGA, agent alone. The method, then:
as §1, §2

The subject of assay [6] is RCM-1 cells. Put plainly: 3D-TGA. The format is cell-based, human. As for the experimental part:
as §1, §2

The subject of assay [7] is pancreatic cancer. The following applies: Phase III MPACT, 1st Line; cited from earlier work.
Assay [8] has as its system SW900 cells. The assay can be described thus: 3D-TGA. Format: cell-based. The following applies: Homo sapiens, SW900, LUN, KRAS G12V, ALK G103R. As for the experimental part: as §1, §2
Assay [9] relates to CORL23 cells. The assay can be described thus: 3D-TGA. The following applies: Homo sapiens, COR-L23, CORL23, LUN, KRAS G12V, ALK R317T. Format: cell-based. As for the experimental part:
as §1, §2

Assay [10] relates to NCI-H2087 cells. The assay can be described thus: 3D-TGA. Format: cell-based. The following applies: Homo sapiens, NCI-H2087, LUN, NRAS Q61K, ALK S553A. The method, then:
as §1, §2

Assay [11] relates to NCI-H358 cells. The assay can be described thus: 3D-TGA. The format is cell-based, human. The following applies: NCI-H358, LUN, KRAS G12C; read-out: IC50 in 3D-TGA, agent alone.
For assay [12], the system named is HPAC cells. Put plainly: 3D-TGA. The following applies: PAN, KRAS G12D, read-out: IC50 in 3D-TGA, agent alone. The format is cell-based, human. The method, then: as §1, §2
In assay [13] the test system is A549 cells. The assay can be described thus: 3D-TGA. The format is cell-based, human. Particulars: A549, LUN, KRAS G12S; read-out: IC50 in 3D-TGA, agent alone. As for the experimental part: as §1, §2
The subject of assay [14] is HPAF-II cells. The assay can be described thus: 3D-TGA. Format: cell-based, human. The following applies: PAN, KRAS G12D, read-out: IC50 in 3D-TGA, agent alone. As for the experimental part:
as §1, §2

The subject of assay [15] is Calu-6 cells. Put plainly: 3D-TGA. The format is cell-based, human. The following applies: Calu-6, LUN, KRAS Q61K; read-out: IC50 in 3D-TGA, agent alone. The method, then: as §1, §2
For assay [16], the system named is CFPAC-1 cells. The assay can be described thus: 3D-TGA. Format: cell-based, human. Particulars: CFPAC-1, PAN, KRAS G12V, read-out: IC50 in 3D-TGA, agent alone. As for the experimental part:
as §1, §2

Assay [17] has as its system Capan-1 cells. Put plainly: 3D-TGA. Format: cell-based, human. Particulars: Capan-1, PAN, KRAS G12V, read-out: IC50 in 3D-TGA, agent alone. The method, then: as §1, §2
The test system of assay [18] is Panc 10.05 cells. The assay can be described thus: 3D-TGA. Format: cell-based, human. Particulars: Panc 10.05, PAN, KRAS G12D, read-out: IC50 in 3D-TGA, agent alone. As for the experimental part: as §1, §2
The subject of assay [19] is PANC-1 cells. Put plainly: 3D-TGA. The format is cell-based, human. The following applies: PANC-1, PAN, KRAS G12D, read-out: IC50 in 3D-TGA, agent alone. The method, then:
as §1, §2

For assay [20], the system named is Capan-2 cells. Put plainly: 3D-TGA. The format is cell-based, human. The following applies: Capan-2, PAN, KRAS G12V, read-out: IC50 in 3D-TGA, agent alone. As for the experimental part:
as §1, §2

For assay [21], the system named is PA-TU-8988T cells. Put plainly: 3D-TGA. Format: cell-based, human. Particulars: PAN, KRAS G12V, read-out: IC50 in 3D-TGA, agent alone. The method, then:
as §1, §2

Assay [22] concerns PSN-1 cells. The assay can be described thus: 3D-TGA. Format: cell-based, human. The following applies: PSN-1, PAN, KRAS G12R, read-out: IC50 in 3D-TGA, agent alone. The method, then:
as §1, §2

For assay [23], the system named is MIA PaCa-2 cells. The assay can be described thus: 3D-TGA. The format is cell-based, human. The following applies: MIA-PaCa2, PAN, KRAS G12C, read-out: IC50 in 3D-TGA, agent alone.
Assay [24] deals with AsPC-1 cells. Put plainly: 3D-TGA. Format: cell-based, human. Particulars: Homo sapiens, ASPC1; AsPC-1, PAN, KRAS G12D; read-out: IC50 in 3D-TGA, agent alone. The method, then: as §1, §2
Assay [25] relates to PA-TU-8988S cells. Put plainly: 3D-TGA. The following applies: Homo sapiens, PaTu 8988s, PAN, KRAS G12V, read-out: IC50 in 3D-TGA, agent alone. The format is cell-based. The method, then:
as §1, §2

Assay [26] concerns Panc 03.27 cells. Put plainly: 3D-TGA. Format: cell-based. Particulars: Homo sapiens, PANC-03-27; Panc 03.27, PAN, KRAS G12V; read-out: IC50 in 3D-TGA, agent alone. As for the experimental part: as §1, §2
The mark [27] stands for this setting: agent alone, read-out: IC50 in 3D-TGA Crizotinib.
[28] abbreviates: read-out: IC50 in 3D-TGA Alectinib.
Setting [29] is: HT-29, COL, BRAF V600E, read-out: IC50 in 3D-TGA, agent alone.
Setting [30] is: SW626, COL, KRAS G12V, read-out: IC50 in 3D-TGA, agent alone.
[31] abbreviates: RCM-1, COL, KRAS G12V, read-out: IC50 in 3D-TGA, agent alone.

As to `Nc1ccn([C@@H]2O[C@H](CO)[C@@H](O)C2(F)F)c(=O)n1` [Gemcitabine, gemcitabine], the IC50 was < 50 nM in [1] (Homo sapiens, HT-29, read-out: IC50 in 3D-TGA, agent alone); < 50 nM in [2] (Homo sapiens); 100 to 500 nM in assay [3] (Homo sapiens); 100 to 500 nM in assay [4] (Homo sapiens, SW626, read-out: IC50 in 3D-TGA, agent alone); 500 to 1000 nM in assay [5] (Homo sapiens, LS-1034); 500 to 1000 nM in [6] (Homo sapiens, RCM-1, read-out: IC50 in 3D-TGA, agent alone). Further, the ORR in assay [7] is recorded as 7%.

As for `C[C@@H](Oc1cc(-c2cnn(C3CCNCC3)c2)cnc1N)c1c(Cl)ccc(F)c1Cl` [Crizotinib, crizotinib], the IC50 in [8] (setting [27]), in assay [9] (setting [27]) and in assay [10] (setting [27]) was 1000 nM each time.

As for `CCc1cc2c(cc1N1CCC(N3CCOCC3)CC1)C(C)(C)c1[nH]c3cc(C#N)ccc3c1C2=O` [Alectinib, alectinib], the IC50 in assay [8] (setting [28]), in assay [9] (setting [28]) and in [10] (setting [28]) was 1000 nM throughout.

In the case of `O=C1[O][Pt]2([NH][C@@H]3CCCC[C@H]3[NH]2)[O]C1=O` [Oxaliplatin, oxaliplatin], the half-inhibitory concentration (IC50) in assay [11] was 1000 nM; in [12] it was 1000 nM; in assay [13], 1000 nM; in assay [14], 1000 nM; in assay [1] (setting [29]) it was 1000 nM; in assay [2] (CL-40, COL, KRAS G12D) it was 100 to 500 nM. For the same compound, the half-inhibitory concentration (IC50) in assay [15] was 1000 nM; in [16], 1000 nM; in assay [17], 100 to 500 nM; in assay [3] (SNU-1197, COL, KRAS G12D), 1000 nM; in assay [18], 1000 nM; in assay [4] (setting [30]), 1000 nM. Besides, the IC50 in [19] was 1000 nM; in assay [5] it was 1000 nM; in assay [20], 1000 nM; in assay [21] it was 1000 nM; in assay [6] (setting [31]), 500 to 1000 nM; in assay [22], 1000 nM. The IC50 in assay [23] turned out to be 1000 nM.

Regarding `O=c1[nH]cc(F)c(=O)[nH]1` [Compound 5-FU, 5-fluorouracil], the IC50 amounted to 1000 nM in assay [12] (Homo sapiens); 1000 nM in assay [14] (Homo sapiens); 1000 nM in assay [16] (Homo sapiens); 1000 nM in assay [17] (Homo sapiens); 1000 nM in assay [24]; 1000 nM in [18] (Homo sapiens, Panc1005). Also, the IC50 in assay [19] (Homo sapiens) is 1000 nM; in assay [20] (Homo sapiens), 1000 nM; in assay [22] (Homo sapiens, PSN1) it was 1000 nM; in assay [25], 1000 nM; in assay [26] it was 1000 nM; in assay [23] (Homo sapiens, MIA PaCa-2), 1000 nM.

Regarding `CCc1c2c(nc3ccc(O)cc13)-c1cc3c(c(=O)n1C2)COC(=O)[C@]3(O)CC` [SN-38], the IC50 is < 50 nM in assay [12]; < 50 nM in assay [14]; < 50 nM in assay [1] (setting [29]); < 50 nM in [2] (CL-40, COL, KRAS G12D); < 50 nM in assay [16]; < 50 nM in assay [17]. Besides, the IC50 in assay [3] (SNU-1197, COL, KRAS G12D) was < 50 nM; in assay [18] it was < 50 nM; in assay [4] (setting [30]), < 50 nM; in assay [19], < 50 nM; in assay [5], < 50 nM; in [20], < 50 nM. Further, the IC50 in assay [21], in [6] (setting [31]) and in assay [23] was < 50 nM in each case.
